≈ marks a conversion by molar mass, not a printed value.
Columns and labels:
[1] = Solubility test in PBS(−) and PBS(+) solution; assay type: physicochemical; conditions: for Solubility PBS(+): PBS(+) solution (with CaCl2 and MgCl2); for Solubility PBS (−): PBS(−) solution, ultrasonicated at 30° C. 10 minutes, room temperature 2 hours, absorbance at 500 nm
Method: PBS tablets (ICN Bioohemi Inc., containing 0.02 g of KH2PO4, 0.115 g of Na2HPO4, 0.02 g of KCl and […] of NaCl per tablet) were dissolved in distilled water (100 ml), and the solution was autoclaved to obtain a PBS(−) solution. The PBS(−) solution (80 ml) was added with CaCl2 dihydrate (1 g/L, 10 ml) and MgCl2 hexahydrate (1 g/L, 10 ml) to prepare a PBS(+) solution.
Each test compound (1 mg) was added to the PBS(−) solution (300 μl), and the mixture was ultrasonicated at 30° C. for 10 minutes, and left at room temperature for 2 hours. Then, the mixture was centrifuged (12,000 rpm, 10 minutes), the supernatant was diluted 50 times with 0.01 N sodium hydroxide solution, and absorbance of the diluted mixture was measured at 500 nm.
The solubility in the PBS(+) solution can also be obtained in a similar manner.

[2] = Mannan binding test; parameters: species or system yeast; conditions: PBS(+); incubation at 30° C. for 24 hours; ~0: below detection limit (trace)
Method: A PBS(+) solution (100 μl) of mannan (Sigma, derived from yeast, 50 μg/ml) and a PBS(+) solution (100 μl) of each test compound (40 μg/ml) were mixed, and incubated at 30° C. for 24 hours. Then, the mixture was centrifuged (14,000 rpm, 4° C., 5 minutes), the supernatant was diluted 10 times with 0.01 N sodium hydroxide solution, and absorbance of the diluted mixture was measured at 500 nm. The amount of the dissolved compound was calculated on the basis of E1 cm1%180 (500 nm), and the amount of the compound binding to mannan was calculated.

[3] = test system: A. fumigatus IFO8866; experiment: Antifungal activity test, agar dilution method; assay type: cell-based; conditions: for MIC A. fumigatus IFO8866: yeast morphology agar, pH 7.0, 30° C. for 2 days; for antifungal activity against A. fumigatus (in words): compared with control BMY28864
Method: (§1) Antifungal activity was measured by the agar dilution method utilizing the yeast morphology agar (0.15 M phosphate buffer, pH 7.0). Each microorganism was inoculated in an amount of 5 μl of 2×10^6 cells/ml solution per spot, and cultured at 30° C. for 2 days. The results were represented in terms of the minimum growth inhibitory concentration. As a control compound, BMY28864 was used.

[4] = test system: C. albicans A9540; experiment: Antifungal activity test, agar dilution method; assay type: cell-based; conditions: for MIC C. albicans A9540: yeast morphology agar, pH 7.0, 30° C. for 2 days; for antifungal activity against C. albicans (in words): compared with control BMY28864
Method: as §1

[5] = test system: C. neoformans ATCC 90112; experiment: Antifungal activity test, agar dilution method; assay type: cell-based; conditions: for MIC C. neoformans ATCC 90112: yeast morphology agar, pH 7.0, 30° C. for 2 days; for antifungal activity against C. neoformans (in words): compared with control BMY28864
Method: as §1

Row | SMILES | Solubility PBS(+) [1] | Solubility PBS (−) [1] | Binding to mannan [2] | MIC A. fumigatus IFO8866 [3] [mg/L] | MIC C. albicans A9540 [4] [mg/L] | MIC C. neoformans ATCC 90112 [5] [mg/L] | antifungal activity against A. fumigatus (in words) [3] | antifungal activity against C. albicans (in words) [4] | antifungal activity against C. neoformans (in words) [5]
1 | COc1cc(O)c2c(c1)C(=O)c1c(cc3c(c1O)-c1c(cc(C)c(C(=O)N[C@H](CO)C(=O)O)c1O)[C@H](O[C@@H]1O[C@H](C)[C@H](N(C)C)[C@H](O[C@@H]4OC[C@@H](O)[C@H](O)[C@H]4O)[C@H]1O)[C@H]3O)C2=O [BMY28864, N,N′-dimethylpradimicin FA-2, reference compound] | 16,000 μg/ml | 14,000 μg/ml | 0.81 μg/1 μg of mannan | 12.5 (≈ 14.4 µM) | 6.3 (≈ 7.23 µM) | 3.1 (≈ 3.56 µM) |  |  | 
2 | COc1cc(O)c2c(c1)C(=O)c1c(cc3c(c1O)-c1c(cc(C)c(C(=O)N[C@H](CO)C(=O)O)c1O)[C@H](O[C@@H]1O[C@H](C)[C@H](N(C)C)[C@H](O[C@H](OCC(=O)O)C(=O)O)[C@H]1O)[C@H]3O)C2=O [BMY28864-DCA] | 37,500 μg/ml | 37,500 μg/ml | 0.28 μg/1 μg of mannan | >50 | 12.5 (≈ 14.4 µM) | 25 (≈ 28.7 µM) | relatively low | maintained | maintained
3 | COc1cc(O)c2c(c1)C(=O)c1c(cc3c(c1O)-c1c(cc(C)c(C(=O)N[C@H](C)C(=O)O)c1O)[C@H](O[C@@H]1O[C@H](C)[C@H](N(C)C)[C@H](O[C@@H]4OC[C@@H](O)[C@H](O)[C@H]4O)[C@H]1O)[C@H]3O)C2=O [N,N-Me2-PRM C, reference compound] | 950 µg/mL (≈ 1110 µM) | 1,900 μg/ml | 0.79 μg/1 μg of mannan |  |  |  |  |  | 
4 | COc1cc(O)c2c(c1)C(=O)c1c(cc3c(c1O)-c1c(cc(C)c(C(=O)N[C@H](C)C(=O)O)c1O)[C@H](O[C@@H]1O[C@H](C)[C@H](N(C)C)[C@H](O[C@H](OCC(=O)O)C(=O)O)[C@H]1O)[C@H]3O)C2=O [N,N-Me2-PRM C-DCA] | 1,850 μg/ml | 1,400 μg/ml | ~0 μg/1 μg of mannan | 25 (≈ 29.2 µM) | 6.3 (≈ 7.37 µM) | 3.1 (≈ 3.63 µM) | lower than that of BMY28884 | almost equal to those of BMY28884 | almost equal to those of BMY28884
5 | CN[C@@H]1[C@H](O[C@@H]2OC[C@@H](O)[C@H](O)[C@H]2O)[C@@H](O)[C@H](O[C@H]2c3cc(C)c(C(=O)N[C@H](C)C(=O)O)c(O)c3-c3c(cc4c(c3O)C(=O)c3cc(OC)cc(O)c3C4=O)[C@@H]2O)O[C@@H]1C [PRM A, Pradimicin (PRM) A, reference compound] | 68.5 µg/mL (≈ 81.5 µM) | 39.5 µg/mL (≈ 47 µM) | 0.89 μg/1 μg of mannan |  |  |  |  |  | 
6 | CN[C@@H]1[C@H](O[C@H](OCC(=O)O)C(=O)O)[C@@H](O)[C@H](O[C@H]2c3cc(C)c(C(=O)N[C@H](C)C(=O)O)c(O)c3-c3c(cc4c(c3O)C(=O)c3cc(OC)cc(O)c3C4=O)[C@@H]2O)O[C@@H]1C [PRM A-DCA] | 2,300 μg/ml | 2,250 μg/ml | 0.02 μg/1 μg of mannan | >50 | 6.3 (≈ 7.49 µM) | 12.5 (≈ 14.9 µM) | relatively low | maintained | maintained

— patent US7732582B2, “Benzonaphthacene glycoside derivative and use thereof” (FUJIFILM Corporation, priority 2004, dated 2010)
